Common to all, as to type: functional
Details in all cases: route subcutaneous

The test system of experiment [1] is Rattus norvegicus. Briefly: The increase in the extracellular levels of DOPAC in the rat ventral hippocampus at a dose of 2.5 mg/kg sc measured by in vivo microdialysis.
The test system of experiment [2] is Rattus norvegicus. Briefly: The increase in the extracellular levels of 5-HIAA in the rat ventral hippocampus at a dose of 2.5 mg/kg sc measured by in vivo microdialysis.
The test system of experiment [3] is Rattus norvegicus. Briefly: The increase in the extracellular levels of DOPAC in the rat ventral hippocampus at a dose of 5.0 mg/kg sc measured by in vivo microdialysis.
In experiment [4] the test system is Rattus norvegicus. Briefly: The increase in the extracellular levels of 5-HT in the rat ventral hippocampus at a dose of 5.0 mg/kg sc measured by in vivo microdialysis.
The subject of experiment [5] is Rattus norvegicus. Briefly: The increase in the extracellular levels of NA in the rat ventral hippocampus at a dose of 2.5 mg/kg sc measured by in vivo microdialysis.

In ChEMBL document CHEMBL1135518 (J Med Chem, 2002) one finds Increase data, which are given here for three molecules.

For `COc1cccc2c1N1CCN(C)C[C@H]1c1ccccc1C2`, the Increase is 160% in the experiment on Rattus norvegicus [1] and 120% with Rattus norvegicus [2].

On to `COc1cccc2c1N1CCN(C)CC1c1ccccc1C2` (racemic), for which the Increase was 160% with Rattus norvegicus [3] and 200% in the experiment with Rattus norvegicus [4].

On to `COc1cccc2c1N1CCN(C)C[C@@H]1c1ccccc1C2`, for which the Increase turned out to be 130% with Rattus norvegicus [1], 200% in the experiment on Rattus norvegicus [5] and 120% with Rattus norvegicus [2].
